Measurements from patent publication US11385223B2, “Anastasis biosensor” (THE JOHNS HOPKINS UNIVERSITY, priority 2012, dated 2022).
Numbered stars: 1 amine (or outer) side, 2 acyl side, 3 side chain; on linkers, the order of the positions; unused ones are H or OH. Bridge positions count the residues as written; N and C are the ends. Square brackets hold non-standard residues; d marks the D form. Peptide text beside a SMILES is read from it. I, II: the chains in the order shown. Actinocin(9to1) = Cc1c2oc3c(C)ccc(C(=O)[*:1])c3nc-2c(C(=O)[*:2])c(N)c1=O; NMeV = CN[C@H](C(=O)O)C(C)C; Sar = CNCC(=O)O

Columns and labels:
[1] = tested on: Mustela putoris furo (Mpf) brain cells; assay: Apoptosis induction and its reversal in Mpf brain cells (morphology, annexin V-FITC); assay type: cell-based, ferret
NIH 3T3 cells = assay: Apoptosis induction and its reversal in NIH 3T3 cells (morphology, caspase-3 Western blot); assay type: cell-based
[2] = tested on: liver cells and NIH 3T3 cells; assay: Transient actinomycin D exposure after removal of apoptotic inducers (caspase-3 Western blot, trypan blue exclusion); assay type: cell-based
Procedure: FIG. 14A-14F: Critical contributing factors in reversal of apoptosis. (FIG. 14A) RNA blot for detecting new RNA synthesis in untreated vs. treated and washed (Washed) liver cells 1 h after a 5-h exposure to 4.5% ethanol and with and without transient exposure (1 h, 1 μg/ml) to actinomycin D (AMD). No s4U served as negative control for the probe binding to RNA. (FIG. 14B) Western blot analysis of the cleavage of caspase-3 (Casp-3) on the total lysate of untreated, treated (5-h exposure to 4.5% ethanol for liver cells, 20-h exposure to 10% DMSO for NIH 3T3 cells), and washed liver cells and NIH 3T3 cells with and without transient exposure to actinomycin D (AMD) immediately after removal of apoptotic stimuli. The AMD-exposed cells were cultured in fresh medium for 23 h and then subjected to the analysis. c, cleaved form. […] The AMD exposed-cells were cultured in fresh medium for 23 h and then subjected to the assay. ns, p>0.05; *p<0.05; n=3 independent experiments. Error bars denote SD. (FIG. 14D) A time-course microarray study in liver cells, log 2-fold change of gene expression comparison between ethanol-induced apoptotic cells (RO), untreated cells (Ctrl), and induced cells that were then washed and further cultured in fresh medium for 3 (R3), 6 (R6), 24 (R24), and 48 h (R48). The log 2 signal values from three biological replicates were averaged (geometric mean) for each time point. […] The corresponding cells were exposed to the inhibitors after apoptotic stimuli had been removed from the treated cells and then further cultured for 24 h. ns, p>0.05; *P<0.05; n=3 independent experiments. Error bars denote SD. (FIG. 14F) Proposed model for reversal of apoptosis. Expression of multiple prosurvival factors and new transcripts during reversal of apoptosis promotes cell survival by suppressing the activated apoptotic pathways and repairing the cells.
To gain insight into the mechanism by which cells reverse apoptosis and survive, we first tested whether new transcription is required. […]

[3] = tested on: primary mouse liver cells
HeLa cells = assay: Apoptosis induction and its reversal in HeLa cells expressing caspase biosensor NES-DEVD-YFP-NLS
[4] = tested on: primary mouse macrophages; assay: Apoptosis induction and its reversal in primary macrophages (morphology); assay type: cell-based
[5] = transient exposure (1 h, 1 μg/ml) immediately after removal of apoptotic stimuli, then 23 h fresh medium
[6] = 4.3% ethanol 5 h, washed, cultured 2 h

C/C1=C\[C@H](C)C[C@H](C)OC(=O)C[C@H](c2ccc(O)cc2)NC(=O)[C@@H](Cc2c(Br)[nH]c3ccccc23)N(C)C(=O)[C@H](C)NC(=O)[C@@H](C)C1 [jasplakinolide]
cells that recovered morphology after removal of the inducer ([1]; 2 μM jasplakinolide 50 h, then removal of inducer for 24 h): ~90% | cells labeled with annexin V-FITC ([1]; 2 μM jasplakinolide 50 h, annexin V-FITC applied ten minutes before washing): Greater than 90% | cells displaying morphological hallmarks of apoptosis (nuclear condensation, mitochondrial fragmentation, cell shrinkage) ([1]; 2 μM jasplakinolide for 50 h): Greater than 90%

C[S+](C)[O-] [DMSO, dimethyl sulfoxide]
cells that reversed all signs of apoptosis after removal of the inducer (NIH 3T3 cells; 10% DMSO 20 h, then washed, 24 h): > 90% | NIH 3T3 cells exhibiting multiple hallmarks of apoptosis (NIH 3T3 cells; 10% DMSO for 20 h): > 90% | caspase-3 cleavage (Western blot) (NIH 3T3 cells; NIH 3T3 cells induced with DMSO): increase in cleaved caspase-3

Cc1c2oc3c(C)ccc(C(=O)N[C@@H]4C(=O)N[C@H](C(C)C)C(=O)N5CCC[C@H]5C(=O)N(C)CC(=O)N(C)[C@@H](C(C)C)C(=O)O[C@@H]4C)c3nc-2c(C(=O)N[C@@H]2C(=O)N[C@H](C(C)C)C(=O)N3CCC[C@H]3C(=O)N(C)CC(=O)N(C)[C@@H](C(C)C)C(=O)O[C@@H]2C)c(N)c1=O [actinomycin D] (I: T[dV]P[Sar][NMeV] / II: T[dV]P[Sar][NMeV]; ester I:1-I:C, II:1-II:C; linker I:N-II:N via Actinocin(9to1))
cell death in control cells not treated with apoptotic inducers ([2]; same concentration of actinomycin D): did not cause significant cell death | caspase-3 cleavage (Western blot) after removal of apoptotic inducers [2, 5]: persistence of cleaved caspase-3 | cell death by trypan blue staining after removal of apoptotic inducers [2, 5]: irreversible cell death

CCO [ethanol]
cells that reversed all signs of apoptosis after removal of the inducer ([3]; 4.5% ethanol 5 h, then washed, 24 h): > 90% | morphological hallmarks of apoptosis (cell shrinkage, plasma membrane blebbing, nuclear condensation, altered mitochondrial morphology) ([3]; 4.5% ethanol for 2.5 h, time-lapse live-cell microscopy): displayed morphological hallmarks of apoptosis | liver cells that shrank and displayed morphological hallmarks of apoptosis ([3]; 4.5% ethanol for 5 h): > 80% | caspase-3 cleavage (Western blot) ([3]; liver cells induced with ethanol): increase in cleaved caspase-3 | cells that recovered morphology after removal of the inducer (primary rat heart cells; 4.5% ethanol 5 h, then removal of inducer for 24 h): ~90% | cells labeled with annexin V-FITC (primary rat heart cells; 4.5% ethanol 5 h, annexin V-FITC applied ten minutes before washing): Greater than 90% | cells displaying morphological hallmarks of apoptosis (nuclear condensation, mitochondrial fragmentation, cell shrinkage) (primary rat heart cells; 4.5% ethanol for 5 h): Greater than 90% | cells that recovered normal morphology after removal of the inducer (HeLa cells; [6]): > 90% | recovered cells that retained nuclear YFP (HeLa cells; [6]): 32% | cells exhibiting morphological hallmarks of apoptosis (nuclear condensation, membrane blebbing, cell shrinkage) (HeLa cells; 4.3% ethanol for 3 h): vast majority | time to regain normal morphology after removal of the apoptotic inducer (HeLa cells; 4.3% ethanol, then washed): ≤ 2 h | formation of micronuclei after reversal of apoptosis (HeLa cells; after reversal of ethanol-induced apoptosis, cytokinesis-block micronucleus assay): Increased in formation of micronuclei

CC(C)(O)/C=C/C(=O)[C@](C)(O)[C@H]1[C@H](O)C[C@@]2(C)[C@@H]3CC=C4[C@@H](C=C(O)C(=O)C4(C)C)[C@]3(C)C(=O)C[C@]12C [cucurbitacin I]
cells that recovered morphology after removal of the inducer ([4]; 1 μM cucurbitacin I 24 h, then removal of inducer for 24 h): ~90% | cells displaying morphological hallmarks of apoptosis (nuclear condensation, mitochondrial fragmentation, cell shrinkage) ([4]; 1 μM cucurbitacin I for 24 h): Greater than 90%
